The source of these data is patent publication US20190290729A1, “PHARMACEUTICAL ASSOCIATION OF GROWTH FACTOR RECEPTOR AGONIST AND ADHESION PROTEIN INHIBITOR FOR CONVERTING A NEOPLASTIC CELL INTO A NON-NEOPLASTIC CELL AND USES THEREOF” (HISTIDE AG, priority 2015, published 2019).

The test system of assay [1] is MG63 cells. Description: p53 protein expression level, immunofluorescence staining quantified with ImageJ, osteosarcoma cells. The format is cell-based, human. Also noted: P53: unit not given here. To be noted: for P53: Table 9, in association with SiRNA Integrin alpha 3+SiRNA Integrin beta 1 (SEQ ID NO: 141 to 163); for p53 (%): Table 4, cyclic GFR-binding peptide in association with SiRNA Integrin alpha 3 and SiRNA Integrin beta 1, 400 ng/mL, 24 hours. The protocol:
(§1) The following starting materials and reagents were used: • Type-I collagen sponge was obtained from Sigma®. • PBS 1× was obtained from Gibco®. • MilliQ water: is water characterised in terms of resistivity (typically 18.2 MΩ·cm at 25° C.). • Low glucose Dulbecco's Modified Eagle Medium (DMEM) was obtained from Invitrogen® • Minimum Essential Medium Eagle without ascorbic acid (αMEM) was obtained from Invitrogen®. • All of the cell culture experiments were carried out without any serum in the medium for the first 8 hours of culture. • Osteosarcoma cells: MG63 cells were obtained from ATCC®. These cells were cultured in DMEM (Eagle's Minimum Essential Medium) medium supplemented with 10% fetal calf serum (FCS) and 1% penicillin/streptomycin. All cells were used at a low passage number (passage 10), were subconfluently cultured and were seeded at 10^4 cells/cm^2 for the purpose of the experiments. • Chondrosarcoma cells Hs819.T cells were obtained from ATCC®. These cells were cultured in DMEM (Eagle's Minimum Essential Medium) medium supplemented with 10% fetal calf serum (FCS) and 1% penicillin/streptomycin. All cells were used at a low passage number (passage 10), were subconfluently cultured and were seeded at 10^4 cells/cm^2 for the purpose of the experiments. • Rhabdomyosarcoma cells: A-673 cells were obtained from ATCC®. These cells were cultured in DMEM (Eagle's Minimum Essential Medium) medium supplemented with 10% fetal calf serum (FCS) and 1% penicillin/streptomycin. All cells were used at a low passage number (passage 10), were subconfluently cultured and were seeded at 10^4 cells/cm^2 for the purpose of the experiments. • Adenocarcinoma cells: HCC4006 cells were obtained from ATCC®. These cells were cultured in RPMI-1640 medium (obtained from ATCC®) supplemented with 10% fetal calf serum (FCS) and 1% penicillin/streptomycin. All cells were used at a low passage number (passage 10), were subconfluently cultured and were seeded at 10^4 cells/cm^2 for the purpose of the experiments. • CMFDA is a Cell Tracker Green obtained from Invitrogen®. • DAPI was obtained from Sigma®. • Fetal bovine serum (FBS) was obtained from Gibco®. • Penicillin/streptomycin was obtained from Invitrogen®. • The AlamarBlue® assay was obtained from Molecular Probes®. • Anti phospho-p53 antibody was obtained from Santa Cruz Biotechnology®, • Anti pRB antibody was obtained from Santa Cruz Biotechnology®, • Monoclonal anti-integrin (extracellular domain) αv, α5, α3, α4, β1, β3, β5 and β9 antibodies were obtained from Santa Cruz Biotechnology®, • Cell cytoskeletal filamentous actin (F-actin) was visualized by Alexa Fluor® 488 phalloidin Sigma® labeling. • Monoclonal anti-vinculin antibody (clone hVIN-1, produced in mouse) was obtained from Sigma®.
(§2) • All of the peptides were synthetized using conventional solution and/or solid phase peptide synthesis methods. • All of the experiments were performed with a concentration of 400 ng/mL of GFR-binding compound(s) as defined herein. • All cell culture experiments were performed with cultures on plastic coated with type-I collagen in order to mimic the physiological conditions of the human body. • The compositions of pharmaceutical compositions used in the examples below are summarized in the following table:
(§3) The cells were first fixed for 20 min with 4% paraformaldehyde/PBS at 4° C. After fixation, the cells were permeabilized in PBS containing 1% Triton X-100 for 15 min. Protein immunofluorescent visualization was performed by first treating the cells with 1% (v/v) specific monoclonal antibodies for 1 hour at 37° C. Then the samples were incubated with Alexa Fluor® 568 or 647 (F(ab′)2 fragment of IgG(H+L)) during 30 min at room temperature. The cell nuclei were counterstained in 20 ng/mL DAPI for 10 min at room temperature.
(§4) For this type of quantification the freeware image analysis ImageJ® software was used. […]

The test system of assay [2] is MG63 cells. Description: pRB phosphorylation level, immunofluorescence staining quantified with ImageJ, osteosarcoma cells. The format is cell-based, human. Conditions: MG63 cells; for pRB: Table 9, in association with SiRNA Integrin alpha 3+SiRNA Integrin beta 1 (SEQ ID NO: 141 to 163); for pRB (%): Table 4, cyclic GFR-binding peptide in association with SiRNA Integrin alpha 3 and SiRNA Integrin beta 1, 400 ng/mL, 24 hours. The protocol:
as §1, §2, §3, §4

In assay [3] the target is growth factor receptors. Description: cell-based or functional assay.

Where no end group is shown, it is not given here.

In assay [1], “CASASPSSVSQDLNAISVLYFIGKTPKILKKYRMIVKSSKSS (Non-cyclic GFR-binding peptide) [SEQ ID NO: 145]” came in with a P53 of 38. In assay [2], the pRB was determined as 6.
As for “TPTSSSPINTLYFDDMGVPTYGKIPSSVVDDEYDKVV (not fully specified; also: cyclic peptide) [SEQ ID NO: 38207]”, in assay [1], the “p53 (%)” value is given as 41%. For the same molecule, the “pRB (%)” value in assay [2] stood at 13%.
“CPSSAPTQLSATSVLYYDDSSNVILRKHRQHNK (Non-cyclic GFR-binding peptide) [SEQ ID NO: 150]” yielded a P53 in assay [1] of 41. In assay [2], the pRB is recorded as 11.
Taken in the same sequence, the figures for “CKIPKASSVPTELNAISVLYFDENEKVILKKYRDMVVEGSG (Non-cyclic GFR-binding peptide) [SEQ ID NO: 144]” were 40 and 7.
Take “APVAAKPLSMLYVDKGVVTYDHHKDAAVEEDEYDKVV (also: cyclic, ring not given here) [SEQ ID NO: 38209]”: the “p53 (%)” value in assay [1] is reported as 38%. The “pRB (%)” value in assay [2] is given as 11%.
On the same counts, the results for “TQVAARPVQTRKIDDMGVPTKKATVAAEDHDKGVVTY (not fully specified; also: cyclic peptide) [SEQ ID NO: 38217]” are 42% and 9%.
Regarding “APTGGSATSMLYYDKGVVTYLRKHRGGVVKDKGVVTY (also: cyclic, ring not given here) [SEQ ID NO: 38204]”, the “p53 (%)” value in assay [1] turned out to be 37%. Moreover, the “pRB (%)” value in assay [2] amounted to 11%.
Regarding “VPTAAEPISMLYLDEYDKVVKFKYEAAAVSNDKQQII (also: cyclic peptide) [SEQ ID NO: 38206]”, in assay [1], the “p53 (%)” value came out at 36%. Further, the “pRB (%)” value in assay [2] worked out at 8%.
On to “CKVGKASSVPTKLSAISTLYLDDMGVPTLKNYQNMVVRASGSH (Non-cyclic GFR-binding peptide) [SEQ ID NO: 142]”, for which the P53 in assay [1] was determined as 36. The pRB in assay [2] was 8.
Molecule “CSIPKASSVPTELSATSVLYYDEYDEKVVLRKHEMVVEG (Non-cyclic GFR-binding peptide) [SEQ ID NO: 153]” had a P53 in assay [1] of 39. In assay [2], this molecule had a pRB of 10.
Taken in the same sequence, the figures for “CAPTQLSPISVLYKDDSSNVILKYHYTLEDH (Non-cyclic GFR-binding peptide) [SEQ ID NO: 148]” were 42 and 9.
In the case of “CAPTKLSAISMLYLDSSNNVILKNYQ (Non-cyclic GFR-binding peptide) [SEQ ID NO: 154]”, the P53 in assay [1] is on record as 40. In assay [2], this molecule showed a pRB of 14.
“VPTVVSPISMLYIDDMGVPTYKQYEVVVVEDDMGVPT (also: cyclic peptide) [SEQ ID NO: 38208]”: the “p53 (%)” value in assay [1] stood at 39%. In addition, the “pRB (%)” value in assay [2] is reported as 9%.
“CTVPKPSSAPTQLSPISVLYKDDSSNVILKYHYNMVVRASGSH (Non-cyclic GFR-binding peptide) [SEQ ID NO: 147]” displayed a P53 in assay [1] of 37. The molecule also had a pRB in assay [2] of 8.
On the same counts, the results for “GTPGPKVPKPSSAPTQLSAISTLYLDEYDKVVLKNYQNMAVR (Non-cyclic GFR-binding peptide) [SEQ ID NO: 163]” are 41 and 7.
As to “VPTVVSAISTLYLRIKPHQGQHLKNYQVVVVENDKQQII (also: cyclic peptide) [SEQ ID NO: 38202]”, in assay [1], the “p53 (%)” value is recorded as 42%. In assay [2], the “pRB (%)” value turned out to be 9%.
For “CKASSVPTELSPISTLYKDENEKVVLKYHYDMVVEGSGSR (Non-cyclic GFR-binding peptide) [SEQ ID NO: 156]”, the P53 in assay [1] is 45. For the same molecule, the pRB in assay [2] is 8.
As to “SRVLLRPVQMRKIDKGVVTYKKATVLLEEHDKGVVTY (not fully specified; also: cyclic peptide) [SEQ ID NO: 38216]”, the “p53 (%)” value in assay [1] turned out to be 41%. Further, the “pRB (%)” value in assay [2] is listed as 11%.
Consider “WWFWGKVPKPSSAPTQLSAISTLYLDEYDKVVLKNYQNMVVR (Non-cyclic GFR-binding peptide) [SEQ ID NO: 162]”, for which the P53 in assay [1] worked out at 39. In assay [2], this molecule yielded a pRB of 8.
Taken in the same sequence, the figures for “CKVPKPSSAPTQLSAISTLYLDEYDKVVLKNYQNMVVRA (Non-cyclic GFR-binding peptide) [SEQ ID NO: 141]” were 41 and 11.
Regarding “VPTGGEPLTTLYYNDKQQIIEQLSNGGEHSDDMGVPT (also: cyclic peptide) [SEQ ID NO: 38215]”, the “p53 (%)” value in assay [1] is 39%. Further, the “pRB (%)” value in assay [2] came out at 16%.
In assay [1], “CGGGSSVPTELSAISTLYLDDYDKVILKKYRNM (Non-cyclic GFR-binding peptide) [SEQ ID NO: 161]” had a P53 of 52. The pRB in assay [2] is listed as 10.
In the case of “CKVGKASSVPTKLNAISTLYLDDSSNVILKNYQ (Non-cyclic GFR-binding peptide) [SEQ ID NO: 160]”, the P53 in assay [1] was found to be 38. In addition, the pRB in assay [2] was found to be 8.
As for “VPQQQEPLTTLYYDEYDKVVEQLSNQQVKSNDKQQII (also: cyclic peptide) [SEQ ID NO: 38211]”, the “p53 (%)” value in assay [1] worked out at 47%. Moreover, the “pRB (%)” value in assay [2] is listed as 14%.
For the molecule “CASAAPSSVPQKLNAISMLYFVGRKPKVLKKYRMIVRS (Non-cyclic GFR-binding peptide) [SEQ ID NO: 157]”, the P53 in assay [1] is 34. For the same molecule, the pRB in assay [2] is reported as 11.
For “SRVAARSVKMAKVGGGGGGGKEVQVAAEEHGGGGGG (not fully specified; also: cyclic peptide) [SEQ ID NO: 38213]”, the “p53 (%)” value in assay [1] came out at 49%. Besides, the “pRB (%)” value in assay [2] came out at 21%.
In assay [1], “CASSAVSQELSAISMLYLGGGLKNYQDM (Non-cyclic GFR-binding peptide) [SEQ ID NO: 155]” had a P53 of 47. The pRB in assay [2] is given as 6.
In assay [1], “CKVGKASSVPTKLNAISTLYLDENEKVVLKKYREGMS (Non-cyclic GFR-binding peptide) [SEQ ID NO: 158]” registered a P53 of 39. The same molecule registered a pRB in assay [2] of 9.
With “VPTSSSPISTLYIDKGVVTYLKYHYSSVAEDEYDKVV (not fully specified; also: cyclic peptide) [SEQ ID NO: 38205]”, the “p53 (%)” value in assay [1] worked out at 40%. Also, the “pRB (%)” value in assay [2] was 16%.
“CKVPKASSVPTELSAISTLYLAAAALKNYQEM (Non-cyclic GFR-binding peptide) [SEQ ID NO: 152]” yielded a P53 in assay [1] of 37. Further, the pRB in assay [2] is on record as 8.
Regarding “VPTMMSNITTQIMRIKPHQGQHIGEMSMMQHNDEYDKVV (also: cyclic peptide) [SEQ ID NO: 38212]”, the “p53 (%)” value in assay [1] turned out to be 51%. The “pRB (%)” value in assay [2] came out at 14%.
For the molecule “VPEAASSLSMLFFEIVRKKPIFLKVYPAATVEDKGVVTY (not fully specified; also: cyclic peptide) [SEQ ID NO: 38201]”, the “p53 (%)” value in assay [1] was determined as 40%. In addition, the “pRB (%)” value in assay [2] worked out at 19%.
In assay [3], ASASPSSVPQDLEPLTILYYVGRTPKVEQLSNMV [GFR-binding compound SEQ ID NO: 55] gave a p-Smad1/5/8 (%) of 32%.
Molecule NDEGLECVPTEERPVQVRKIRIKPHQGQKKATVFLQHNK (not fully specified) [GFR-binding compound SEQ ID NO: 54] displayed a p-Smad1/5/8 (%) in assay [3] of 41%.
